Results as given in patent US9273053B2, “Sulfur-containing heterocyclic derivative having Beta secretase inhibitory activity” (Shionogi & Co., Ltd., priority 2008, dated 2016).

Experiments:
[1] = molecular target: human ether-a-go-go related gene (hERG) channel (Homo sapiens (Human), UniProt Q12809); assay: hERG test; type: cell-based; settings: HEK293 cells expressing hERG channel, whole cell patch clamp, concentration not given
Description: For the purpose of assessing risk of an electrocardiogram QT interval prolongation, effects on delayed rectifier K+ current (IKr), which plays an important role in the ventricular repolarization process, was studied using HEK293 cells expressing human ether-a-go-go related gene (hERG) channel.
After a cell was retained at a membrane potential of −80 mV by whole cell patch clamp method using an automated patch clamp system (PatchXpress 7000A, Axon Instruments Inc.), IKr induced by depolarization pulse stimulation at +50 mV for 2 seconds and, further, repolarization pulse stimulation at −50 mV for 2 seconds was recorded. […] From the recording IKr, an absolute value of the tail peak current was measured based on the current value at the resting membrane potential using an analysis software (DataXpress ver. 1, Molecular Devices Corporation). Further, the % inhibition relative to the tail peak current before application of the test substance was calculated, and compared with the vehicle-applied group (0.1% dimethyl sulfoxide solution) to assess influence of the test substance on IKr.

[2] = molecular target: CYP1A2 (Homo sapiens (Human), UniProt P05177); assay: CYP inhibition test (CYP1A2); type: in vitro ADME; settings: pooled human hepatic microsome, 7-ethoxyresorufin O-deethylation
CYP1A2, sequence (P05177 whole entry): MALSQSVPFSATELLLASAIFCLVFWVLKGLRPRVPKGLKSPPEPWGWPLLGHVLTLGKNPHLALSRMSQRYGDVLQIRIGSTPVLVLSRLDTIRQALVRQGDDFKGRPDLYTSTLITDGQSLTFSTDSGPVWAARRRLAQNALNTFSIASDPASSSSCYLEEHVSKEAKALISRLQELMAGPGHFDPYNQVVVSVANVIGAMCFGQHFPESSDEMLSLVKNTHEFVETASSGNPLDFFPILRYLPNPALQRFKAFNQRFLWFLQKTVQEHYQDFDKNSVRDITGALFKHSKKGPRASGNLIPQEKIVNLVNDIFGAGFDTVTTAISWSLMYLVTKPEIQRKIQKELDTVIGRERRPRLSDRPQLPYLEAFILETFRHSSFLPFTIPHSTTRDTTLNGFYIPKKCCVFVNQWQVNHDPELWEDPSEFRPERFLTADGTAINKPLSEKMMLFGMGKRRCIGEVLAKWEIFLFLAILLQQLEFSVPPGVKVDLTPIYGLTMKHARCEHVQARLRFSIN
Procedure: (§1) After the centrifugation at 3000 rpm for 15 minutes, resorufin (CYP1A2 metabolite) in the supernatant was quantified by a fluorescent multilabel counter and tributamide hydroxide (CYP2CP metabolite), mephenyloin 4′ hydroxide (CYP2C19 metabolite), […] (CYP2D6 metabolite), and terfenadine alcohol (CYP3A4 metabolite) were quantified by LC/MS/MS. Addition of only DMSO being a solvent dissolving a drug to a reaction system was adopted as a control (100%), remaining activity (%) was calculated at each concentration of a test drug added as the solution and […] was calculated by reverse presumption by a logistic model using a concentration and an inhibition rate.

[3] = molecular target: CYP2C9 (Homo sapiens (Human), UniProt P11712); assay: CYP inhibition test (CYP2C9); type: in vitro ADME; settings: pooled human hepatic microsome, tolbutamide methyl-hydroxylation
CYP2C9, sequence (P11712 whole entry): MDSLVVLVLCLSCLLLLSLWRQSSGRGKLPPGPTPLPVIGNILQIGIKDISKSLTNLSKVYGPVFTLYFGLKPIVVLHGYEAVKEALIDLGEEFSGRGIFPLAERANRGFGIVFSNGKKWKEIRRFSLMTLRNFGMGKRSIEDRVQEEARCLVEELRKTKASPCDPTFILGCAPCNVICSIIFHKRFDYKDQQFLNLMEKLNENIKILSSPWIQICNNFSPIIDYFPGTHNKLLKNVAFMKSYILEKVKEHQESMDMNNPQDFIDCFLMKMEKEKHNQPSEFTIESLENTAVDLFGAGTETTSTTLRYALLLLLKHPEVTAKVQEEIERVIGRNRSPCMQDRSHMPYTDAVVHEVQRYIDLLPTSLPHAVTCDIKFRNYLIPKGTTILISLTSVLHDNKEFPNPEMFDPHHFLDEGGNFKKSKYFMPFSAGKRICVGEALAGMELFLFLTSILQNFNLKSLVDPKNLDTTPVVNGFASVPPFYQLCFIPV
Procedure: as §1

[4] = molecular target: CYP2C19 (Homo sapiens (Human), UniProt P33261); assay: CYP inhibition test (CYP2C19); type: in vitro ADME; settings: pooled human hepatic microsome, mephenytoin 4′-hydroxylation
CYP2C19, sequence (P33261 whole entry): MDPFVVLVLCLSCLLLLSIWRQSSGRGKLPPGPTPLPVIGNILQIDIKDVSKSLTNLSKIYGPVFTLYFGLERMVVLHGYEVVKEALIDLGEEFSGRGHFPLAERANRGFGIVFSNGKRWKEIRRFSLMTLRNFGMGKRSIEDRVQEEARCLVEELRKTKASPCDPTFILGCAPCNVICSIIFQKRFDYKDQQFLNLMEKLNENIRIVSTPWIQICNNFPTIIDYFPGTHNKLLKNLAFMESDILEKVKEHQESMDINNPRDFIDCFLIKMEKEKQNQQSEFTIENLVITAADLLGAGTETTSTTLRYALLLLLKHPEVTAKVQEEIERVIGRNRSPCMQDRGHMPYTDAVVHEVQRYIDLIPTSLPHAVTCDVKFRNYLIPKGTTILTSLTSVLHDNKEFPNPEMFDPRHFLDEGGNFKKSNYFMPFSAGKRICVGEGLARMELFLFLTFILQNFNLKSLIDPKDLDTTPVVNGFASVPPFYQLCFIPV
Procedure: as §1

[5] = molecular target: CYP2D6 (Homo sapiens (Human), UniProt P10635); assay: CYP inhibition test (CYP2D6); type: in vitro ADME; settings: pooled human hepatic microsome, dextromethorphan O-demethylation
CYP2D6, sequence (P10635 whole entry): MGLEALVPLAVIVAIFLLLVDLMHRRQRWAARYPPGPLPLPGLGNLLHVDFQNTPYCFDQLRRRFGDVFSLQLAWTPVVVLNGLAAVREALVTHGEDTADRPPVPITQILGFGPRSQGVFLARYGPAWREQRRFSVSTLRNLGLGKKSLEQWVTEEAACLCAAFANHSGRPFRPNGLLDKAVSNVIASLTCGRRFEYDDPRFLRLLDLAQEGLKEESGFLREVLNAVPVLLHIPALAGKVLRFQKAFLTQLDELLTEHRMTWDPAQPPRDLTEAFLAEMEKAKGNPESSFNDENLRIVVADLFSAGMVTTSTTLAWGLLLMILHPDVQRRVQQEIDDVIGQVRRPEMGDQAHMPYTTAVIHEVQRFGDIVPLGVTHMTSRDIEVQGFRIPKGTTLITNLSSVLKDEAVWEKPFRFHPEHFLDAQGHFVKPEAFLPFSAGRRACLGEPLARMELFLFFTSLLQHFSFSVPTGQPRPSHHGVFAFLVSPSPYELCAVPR
Procedure: as §1

[6] = molecular target: CYP3A4 (Homo sapiens (Human), UniProt P08684); assay: CYP inhibition test (CYP3A4); type: in vitro ADME; settings: pooled human hepatic microsome, terfenedine hydroxylation
CYP3A4, sequence (P08684 whole entry): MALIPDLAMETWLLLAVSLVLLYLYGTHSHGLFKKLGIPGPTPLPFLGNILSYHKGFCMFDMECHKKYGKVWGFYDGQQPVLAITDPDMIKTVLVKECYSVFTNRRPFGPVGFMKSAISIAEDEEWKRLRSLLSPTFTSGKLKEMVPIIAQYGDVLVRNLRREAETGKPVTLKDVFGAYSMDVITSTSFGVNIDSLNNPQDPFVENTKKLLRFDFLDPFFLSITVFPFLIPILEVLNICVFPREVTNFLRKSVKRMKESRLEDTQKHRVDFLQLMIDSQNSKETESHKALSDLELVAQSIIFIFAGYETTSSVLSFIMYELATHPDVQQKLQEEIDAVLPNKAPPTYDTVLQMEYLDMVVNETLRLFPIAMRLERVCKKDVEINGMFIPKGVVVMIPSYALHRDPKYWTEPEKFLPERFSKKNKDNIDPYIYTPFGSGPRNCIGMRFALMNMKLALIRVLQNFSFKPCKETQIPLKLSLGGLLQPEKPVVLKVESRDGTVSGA
Procedure: as §1

[7] = molecular target: Recombinant human BACE-1 (Homo sapiens (Human), UniProt P56817); assay: Assay of β-secretase-inhibiting activity; settings: Recombinant human BACE-1 7.4 nM, substrate peptide 18 nM, pH 5.0, 30° C. for 3 hours
Recombinant human BACE-1, sequence (P56817 46-501): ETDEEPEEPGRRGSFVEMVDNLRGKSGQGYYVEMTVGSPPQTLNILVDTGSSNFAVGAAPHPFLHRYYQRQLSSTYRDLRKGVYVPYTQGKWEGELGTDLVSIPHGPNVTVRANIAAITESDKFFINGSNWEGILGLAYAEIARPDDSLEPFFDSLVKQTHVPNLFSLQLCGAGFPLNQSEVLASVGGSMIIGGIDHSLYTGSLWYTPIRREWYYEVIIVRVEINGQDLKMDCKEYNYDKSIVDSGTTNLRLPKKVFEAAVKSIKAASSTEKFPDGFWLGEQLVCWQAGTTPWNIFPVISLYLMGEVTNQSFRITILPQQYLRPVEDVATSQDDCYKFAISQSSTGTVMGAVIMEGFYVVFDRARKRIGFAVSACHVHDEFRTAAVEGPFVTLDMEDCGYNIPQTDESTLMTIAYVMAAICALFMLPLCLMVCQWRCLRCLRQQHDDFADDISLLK

human ether-a-go-go related gene (hERG) channel, sequence (Q12809 whole entry): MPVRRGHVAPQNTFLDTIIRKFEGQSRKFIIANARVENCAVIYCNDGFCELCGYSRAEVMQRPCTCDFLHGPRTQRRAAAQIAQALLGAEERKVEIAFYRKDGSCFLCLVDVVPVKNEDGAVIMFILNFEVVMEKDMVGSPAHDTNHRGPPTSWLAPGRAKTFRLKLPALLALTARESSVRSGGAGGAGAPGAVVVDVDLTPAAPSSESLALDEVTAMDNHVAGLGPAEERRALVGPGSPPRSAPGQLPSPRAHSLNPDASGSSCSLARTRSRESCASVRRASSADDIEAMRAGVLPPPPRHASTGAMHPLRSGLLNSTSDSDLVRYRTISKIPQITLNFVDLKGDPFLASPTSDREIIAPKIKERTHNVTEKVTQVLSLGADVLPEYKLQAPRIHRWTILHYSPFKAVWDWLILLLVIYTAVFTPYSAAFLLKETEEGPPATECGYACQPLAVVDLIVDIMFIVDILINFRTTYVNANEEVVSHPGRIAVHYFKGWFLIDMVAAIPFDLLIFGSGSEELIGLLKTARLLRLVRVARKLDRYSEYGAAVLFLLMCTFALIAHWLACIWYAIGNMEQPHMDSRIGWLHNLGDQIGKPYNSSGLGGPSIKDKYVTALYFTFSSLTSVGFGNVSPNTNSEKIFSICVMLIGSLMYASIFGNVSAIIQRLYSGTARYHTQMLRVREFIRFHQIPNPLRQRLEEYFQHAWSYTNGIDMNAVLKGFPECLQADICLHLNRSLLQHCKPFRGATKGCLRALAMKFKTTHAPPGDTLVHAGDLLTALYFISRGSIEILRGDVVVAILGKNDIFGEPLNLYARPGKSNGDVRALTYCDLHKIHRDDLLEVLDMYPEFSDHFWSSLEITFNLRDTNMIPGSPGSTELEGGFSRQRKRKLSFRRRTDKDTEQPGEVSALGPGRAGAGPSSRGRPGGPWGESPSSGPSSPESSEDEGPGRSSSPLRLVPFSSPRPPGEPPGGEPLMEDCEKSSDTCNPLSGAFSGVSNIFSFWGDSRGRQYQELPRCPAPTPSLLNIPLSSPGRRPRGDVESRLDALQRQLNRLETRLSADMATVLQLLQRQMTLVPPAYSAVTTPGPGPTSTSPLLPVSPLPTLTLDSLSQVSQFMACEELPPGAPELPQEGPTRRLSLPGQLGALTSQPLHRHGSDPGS

SMILES	% inhibition of IKr tail peak current [1] [%]	IC50 [2] [µM]	IC50 [3] [µM]	IC50 [4] [µM]	IC50 [5] [µM]	IC50 [6] [µM]	IC50 [7] [µM]
C=C1C[C@@](C)(c2cc(NC(=O)c3cnc(OC)cn3)cnc2C)N=C(N)S1 [Compound 102]	2.3	–	–	–	–	–	–
CNC(=O)c1ccc(-c2ccc(F)c([C@]3(C)C=CSC(N)=N3)c2)cn1 [Compound 92]	7.9	–	–	–	–	–	–
Cc1cc(C(=O)Nc2ccc(F)c([C@]3(C)C=CSC(N)=N3)c2)n(C)c1 [Compound 35]	–	> 20	> 20	> 20	> 20	> 20	0.096
